The text below walks through data of article PMC4337988 (Science (New York, N.Y.), 2014).

For one assay, the target named is BsPyrR (Bacillus subtilis, UniProt P39765). Briefly: SEC-MALS. Particulars: 50 mM Tris pH 7.5, 150 mM NaCl, 1 mM DTT, room temperature; allosteric. It counts as binding. Background: Size exclusion chromatography separates by hydrodynamic size, large species first.
The next assay concerns the target BcPyrR ([Bacillus] caldolyticus, UniProt P41007). Briefly: SEC-MALS. In kind it is binding. Particulars: 50 mM Tris pH 7.5, 150 mM NaCl, 1 mM DTT, room temperature; allosteric.

BcPyrR, sequence (P41007 whole entry): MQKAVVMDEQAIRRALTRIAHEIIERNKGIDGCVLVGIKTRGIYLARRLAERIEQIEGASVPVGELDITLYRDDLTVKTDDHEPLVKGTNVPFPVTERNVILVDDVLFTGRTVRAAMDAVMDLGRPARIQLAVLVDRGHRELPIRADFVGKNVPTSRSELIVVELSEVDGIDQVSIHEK
BsPyrR, sequence (P39765 whole entry): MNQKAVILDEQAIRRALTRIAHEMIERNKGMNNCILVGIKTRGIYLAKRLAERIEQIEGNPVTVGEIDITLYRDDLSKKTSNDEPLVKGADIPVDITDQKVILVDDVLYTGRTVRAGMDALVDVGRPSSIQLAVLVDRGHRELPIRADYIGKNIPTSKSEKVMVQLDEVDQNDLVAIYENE

In the case of `O=c1ccn([C@@H]2O[C@H](COP(=O)(O)O)[C@@H](O)[C@H]2O)c(=O)[nH]1` [UMP], the “SEC-MALS (oligomeric state shift)” value at BsPyrR is “both UMP and GMP stabilize the tetrameric state of PyrR”; at BcPyrR it was “both UMP and GMP stabilize the tetrameric state of PyrR”. Turning to `Nc1nc2c(ncn2[C@@H]2O[C@H](COP(=O)(O)O)[C@@H](O)[C@H]2O)c(=O)[nH]1` [GMP], the “SEC-MALS (oligomeric state shift)” value on BcPyrR is “We analysed the oligomeric state of BsPyrR and BcPyrR by SEC-MALS upon addition of allosteric ligands”.
